Assay results taken from PubChem BioAssay (NCI).
Several values for one entry are separate records, joined by “and”; a condition that tells them apart may be missing. Equal entries are not always repeated.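 Compound exposure: 48 hours, 5 concentrations, 96-well plates. At the TGI there is no net growth.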

How the values were obtained:
Experiment in all cases: NCI-60 cell line screen, 48 h
[1] = tested on: A498 renal
[2] = tested on: CAKI-1 renal
[3] = tested on: CCRF-CEM leukemia
[4] = tested on: HCT-116 colon
[5] = tested on: K-562 leukemia
[6] = tested on: MALME-3M melanoma
[7] = tested on: NCI-H460 lung
[8] = tested on: OVCAR-3 ovarian
[9] = tested on: OVCAR-4 ovarian
[10] = tested on: SK-MEL-5 melanoma
[11] = tested on: SNB-19 CNS
[12] = tested on: SNB-75 CNS
[13] = tested on: UACC-257 melanoma
[14] = tested on: UACC-62 melanoma
[15] = tested on: SR leukemia
[16] = tested on: MDA-MB-435
[17] = tested on: NCI/ADR-RES ovarian
[18] = tested on: T-47D breast

| SMILES | TGI [1] [µM] | TGI [2] [µM] | TGI [3] [µM] | TGI [4] [µM] | TGI [5] [µM] | TGI [6] [µM] | TGI [7] [µM] | TGI [8] [µM] | TGI [9] [µM] | TGI [10] [µM] | TGI [11] [µM] | TGI [12] | TGI [13] [µM] | TGI [14] [µM] | TGI [15] [µM] | TGI [16] [µM] | TGI [17] [µM] | TGI [18] [µM] |
| --- | --- | --- | --- | --- | --- | --- | --- | --- | --- | --- | --- | --- | --- | --- | --- | --- | --- | --- |
| NC(N)=NCCCC(NCc1c2ccccc2[n+]([O-])c2ccccc12)C(=O)O (stereo not drawn) | > 100 | > 100 | 83.3 | > 100 | > 100 | > 100 | > 100 | > 100 | > 100 | > 100 | > 100 | 88.7 µM | > 100 | > 100 |  |  |  |  |
| COC(=O)C1CCC[C@H]2C(CO)=C(C)C(=O)[C@@H]12 (stereo partly drawn) | > 100 | > 100 | > 100 | > 100 | > 100 | > 100 | > 100 |  | > 100 | > 100 | > 100 | > 100 µM | > 100 | > 100 | > 100 |  |  |  |
| CCOc1ccc(N=Nc2c(-c3ccccc3)nn(C(=O)CC(=O)Nc3cccc(C)c3)c2-c2ccccc2)cc1 |  | > 100 | > 100 | > 100 | > 100 | > 100 | > 100 | > 100 | > 100 | > 100 | > 100 | > 100 µM | > 100 | > 100 | > 100 |  |  |  |
| COc1cc2c(cc1OC)C1(c3ccccc3)ON=C(c3ccccc3)N1CS2 (stereo not drawn) | > 100 | > 100 | > 100 | > 100 | > 100 | > 100 | > 100 | > 100 | > 100 | > 100 | > 100 | > 100 µM | > 100 | > 100 | > 100 |  |  |  |
| CCCCCCCSCC1OC(n2cnc3c(N)ncnc32)C(O)C1O (stereo not drawn) | 32.4 | 19.5 | > 100 | 11.4 | > 100 | > 100 | 42.1 |  | 93 | 30.8 | > 100 | > 100 µM | 56.9 |  | 43.4 |  |  |  |
| CCCC(=O)[O-].CCCC(=O)[O-].N.N.N.N.[Co+3].[O-][Cl+3]([O-])([O-])[O-] | > 100 |  | > 100 | > 100 | > 100 | > 100 | > 100 | > 100 | > 100 | > 100 | > 100 | > 100 µM | > 100 | > 100 |  |  |  |  |
| Nc1ccn(CC(CO)CC(c2ccccc2)P(=O)(O)O)c(=O)n1 (stereo not drawn) | > 100 | > 100 | > 100 | > 100 | > 100 | > 100 | > 100 | > 100 |  | > 100 | > 100 | 28.4 µM and > 100 µM | > 100 | > 100 | > 100 |  |  |  |
| CSC1CC2C(CC1(C)SC)C2(C)C (stereo not drawn) | > 100 | > 100 | 84.2 |  | 81.8 | > 100 | 67 | > 100 | > 100 | 78.9 | > 100 | 83.9 µM | 86.9 | > 100 | > 100 |  |  |  |
| CCN1C(=O)C(N=[N+]=[N-])(c2ccccc2)C(=O)c2ccccc21 (stereo not drawn) |  | > 100 | > 100 | > 100 | > 100 | > 100 | > 100 | > 100 | > 100 | > 100 | > 100 | > 100 µM | > 100 | > 100 | > 100 |  |  |  |
| CN(C)C(=O)C(F)(F)C(c1ccc(C(F)(F)F)cc1)C1C(=O)N(C)C(=O)N(C)C1=O (stereo not drawn) | > 100 | > 100 | > 100 | > 100 |  |  | > 100 | > 100 | > 100 | > 100 | > 100 | > 100 µM | > 100 | > 100 |  | > 100 | > 100 | > 100 |
| Oc1c2c(c3c4c1N=CC=4CCN=3)C1(C=C(Br)C(O)C(Br)=C1)CCN2 (stereo not drawn) | 23.4 | 29.3 | 5.79 | 1.9 | > 21 |  | 8.47 | 3.12 | 2.86 | 2.67 | > 34.8 | 24.5 µM | 1.27 | 2.66 |  |  | 2.77 |  |
| N#CC1C(=O)NC2=C(CCOc3c2ccc2ccccc32)C1c1ccc(F)cc1 (stereo not drawn) | 44.1 | 71.4 | > 100 | 27 | > 100 | 79 | > 100 | 40.7 | > 100 | 80.8 | 52.7 | 54 µM | > 100 |  |  | > 100 | 43.8 | 99.5 |
| COc1cc(O)c2c(c1O)C(=O)c1cc(C)ncc1C2=O | > 50 |  | > 50 | > 50 | > 50 | 27.6 | > 50 | 45.9 | > 50 | 30 | > 50 | > 50 µM | 36.6 | > 50 |  |  |  |  |
